Key:
[1] = system: genes that activated at stage II; experiment: Withdrawing individual chemicals from stage II: plasticity signatures and chromatin accessibility; format: cell-based, human
Method: (§1) In several experiments, to testing the reprogramming efficiency after regulate each small molecules, the indicated small molecules were removed from the cocktails. […]
Approximately 5×10^4 cells of each sample were collected and washed once with cold PBS and re-suspended in 50 μL Lysis buffer (10 mM Tris-HCl PH7.4, 10 mM NaCl, 3 mM MgCl2, 0.5% NP-40). […] All ATAC libraries were sequenced on an Illumina Novaseq 6000 platform and 150 bp paired-end reads were generated. […]
Quality control was performed using FastQC to all samples. The raw ATAC-seq reads were trimmed using Trimmomatic with parameter ‘[…]:NexteraPE-PE.fa:2:30:7:1:true LEADING:3 TRAILING:3 SLIDINGWINDOW:4:15 MINLEN:36’ to remove detected adapters. Then the clean reads were mapped to human reference genome hg19 using Bowtie2 with parameter ‘—very-sensitive’. […] Duplicated reads were removed using MarkDuplicates function of Picard tools. Low quality mapped reads and reads mapped to mitochondrial were filtered using Samtools. […]
Overlapped peaks in different samples were merged and defined sample specific peak sets using R package ChIPpeakAnno. […] The ATAC signal strength around peak region or gene promoter region was quantified using Deeptools.

[2] = system: SALL4; experiment: Withdrawing individual chemicals from stage II: SALL4 activation; format: cell-based, human
Method: as §1
Total RNA was isolated using Direct-zol RNA MiniPrep Kit (Zymo Research, R2053). cDNA was synthesized from 0.5-1 μg of total RNA using TransScript First-Strand cDNA Synthesis SuperMix (TransGen Biotech, AT311-03). qPCR was performed by using KAPA SYBR FAST qPCR Kit Master Mix (KAPA Biosystems, KM4101) on a CFX ConnectTM Real-Time System (Bio-Rad). The data were analyzed using the delta-delta Ct method. […]

[3] = system: human somatic cells; experiment: hCiPSC colonies at the end of reprogramming after withdrawing individual chemicals from stage I or II; format: cell-based; conditions: factor removed
Method: Cells were maintained at 37° C. with 21% 02 and 5% CO2. The induction medium was changed every 3-4 days. HEFs were seeded at a density of 1-1.5×10^4 cells per well of a 12-well plate in 15%. FBS-DMEM medium. Change the medium into stage I induction medium on the next day. For stage I induction, single layer epithelial-like cells would emerge at day 4-6 and approach 80%-100% confluence at day 8-12, then change the medium into stage II induction medium. For stage II induction, multi-layered colonies appeared after 8-12 days treatment and these cell colonies would continually grow larger. After totally 16-20 days' stage II treatment, change the medium into stage III condition. For stage III induction, 8-12 days treatment of stage III medium is required and then change the medium into stage IV condition. For stage IV induction, VPA (500 μM) was included in the first 4 days. Primary hCiPSC colonies would emerge after 6-8 days' treatment. At the end of stage IV, immunofluorescent staining of co-expression of OCT4 and NANOG was used to confirm the generation of primary hCiPSC colonies. Primary hCiPSC colony number was calculated as the number of the compact OCT4 positive colonies. Reprogramming efficiency was calculated as the number of primary hCiPSC colonies divided by the number of input HEFs.
In several experiments, to testing the reprogramming efficiency after removing each small molecules, the indicated small molecules were removed from the cocktails. The concentration of the small molecules used to regulate the same pathway or targets were indicated as follow: GSK3 inhibitors (CHIR99021: 3-15 μM; TD114-2: 0.5-2 μM; CHIR98014: 1-3 μM; GSK3βi XV: 0.05-0.2 μM); RA pathway agonists (TTNPB: 0.5-10 μM; Ch55: 1-5 μM; AM580: 0.1-1 μM); Rock inhibitors (TZV: 2-10 μM; Y27632: 2-15 μM; Fasudil: 2-10 μM; HA1100: 2-10 μM); TGFβ inhibitors (A8301: 0.1-5 μM; SB431542: 2-50 μM; LY364947: 0.5 μM; LY21: 0.5 μM; 616452: 10 μM).
In several experiments, to testing the reprogramming efficiency after regulate each small molecules, the indicated small molecules were removed from the cocktails. The concentration of the small molecules used to targeting the same pathway or targets were indicated as follow: GSK3 inhibitors (CHIR99021: 3-15 μM; TD114-2: 0.5-2 μM; CHIR98014: 1-3 μM; GSK3βi XV: 0.05-0.2 μM); TGFβ inhibitors (A8301: 0.2-5 μM; SB431542: 2-50 μM; 616452: 10 μM); RA pathway agonists (TTNPB: 0.2-10 μM; Ch55: 1-10 μM; AM580: 0.1-1 μM); Rock inhibitors (Y27632: 2-15 μM; Fasudil: 2-10 μM; HA1100: 2-10 μM; TZV: 2-10 μM); Smoothened agonists (SAG: 0.2-2 μM; Purmorphamine: 0.5-2 μM; Hg-Ag1.5: 0.5-1 μM; Human shh: 20-200 μM); histone demethylation inhibitors (Tranylcypromine: 2-50 μM; GSK2879: 0.02-2 μM; LSD-C76: 0.2-5 μM; S2101: 0.5-5 μM; LSD-2D: 0.2-5 μM; RN-1: 0.2-5 μM); DNMT inhibitors (5-azaC: 2-15 μM; Decitabine: 0.5-10 μM; RG108: 0.5-10 μM); JNK inhibitors (JNK-in-8: 0.2-2 μM; JNK-in-5: 0.5-1 μM; JNK-in-7: 0.2-2 μM; JNK-in-12: 0.2-0.5 μM); CBP/p300 bromodomain inhibitor (SGC-CBP30: 0.5-2 μM; I-CBP112: 0.5-5 μM; GNE272: 0.5-5μM; GNE409:0.5-5μM); Menin-MLL interaction inhibitor (VTP50469: 0.5-2μM; MI3454: 0.5-2μM; WDR5-IN-4: 0.5-2μM).

[4] = system: other human kinases; conditions: cited from earlier work
[5] = system: cellular retinoic acid binding protein (CRABP); conditions: cited from earlier work
[6] = system: DNA CpG methylation; experiment: DNA methylation levels after withdrawing individual chemicals from stage II; format: cell-based, human
Description: as §1
To perform alignments of bisulfite-treated reads correctly, the Bismark Bisulfite Mapper pipeline was followed. […] Sequence reads were similarly transformed and mapped to prepared genomes using Bowtie2 with parameters set by Bismark. […] In this way, the number of reads were obtained that supported methylation and the number of reads covering every CpG site, non-CpG sites were not considered in later analysis.
To identify the sites showing evidence of methylation, binomial test was performed to each site on these counts to test whether the methylation counts are beyond bisulfite non-conversion events. […] Methylation level for each CpG site passed the test was defined as the fraction of reads supporting methylation out of reads that cover the site (mCpG/CpG). […] The mean CpG methylation level of each sample was calculated as the fraction of all reads supporting CpG methylation out of reads that cover CpG site (all mCpG / all CpG).

## Cc1cc(NC(=O)c2cccc(NC(=O)/C=C/CN(C)C)c2)ccc1Nc1nccc(-c2cccnc2)n1 [JNKIN8]
[1]; chromatin accessibility analysis
  opened chromatin status of the genes activated at stage II: essential
[1]; stage II
  acquisition of plasticity signatures: required
[2]
  activation of SALL4: required
[3]
  generation of hCiPSCs: greatly impaired

## CN(C)CCOc1ccc(-c2nc(-c3ccc4c(c3)CCC4=NO)c(-c3ccncc3)[nH]2)cc1 [SB590885, 5-[2-[4-[2-(Dimethylamino)ethoxy]phenyl]-5-(4-pyridinyl)-1H-imidazol-4-yl]-2,3-dihydro-1H-inden-1-one oxime]
[4]
  inhibition to other human kinases: no inhibition

## CC(C)(C)c1cc(C(=O)/C=C/c2ccc(C(=O)O)cc2)cc(C(C)(C)C)c1 [Ch 55, 4-[(1E)-3-[3,5-bis(1,1-Dimethylethyl)phenyl]-3-oxo-1-propenyl]benzoic acid]
[5]
  affinity for CRABP: low affinity

## Nc1ncn([C@@H]2O[C@H](CO)[C@@H](O)[C@H]2O)c(=O)n1 [5-Azacytidine]
[6]
  development of a hypo-methylated state: required
[3]
  generation of hCiPSCs: greatly impaired

Reference: patent US20240182867A1, “CHEMICAL REPROGRAMMING OF HUMAN SOMATIC CELLS INTO PLURIPOTENT CELLS” (Peking University, priority 2021, published 2024)
